The text below walks through data of article PMC4935840, “Molecular basis of the remarkable species selectivity of an insecticidal sodium channel toxin from the African spider Augacephalus ezendami” (Scientific Reports, 2016).

“Also recorded” adds a separate entry of the source.

Data set [1] concerns BgNaV1 over PaNaV1 channels. The settings on record: cited from earlier work. The source says:
The selectivity of Ae1a for BgNaV1 over PaNaV1 channels is reminiscent of the selectivity reported for the insecticidal spider-venom peptide μ-DGTX-Dc1a (Dc1a) isolated from the American desert spider Diguetia canities. In order to explore the molecular basis of this species selectivity we examined the ability of Ae1a to inhibit the activity of a BgNaV1 channel containing two mutations that were previously reported to determine sensitivity to Dc1a[18].

Data set [2] concerns American cockroaches (Periplaneta americana). The note with it: at much higher doses; cited from earlier work. An excerpt: (§1) An ideal bioinsecticide would be specific for the targeted insect pest, without harming beneficial insects. Although most spiders are generalist predators that hunt many types of insect prey, some spider-venom peptides have been isolated that are specific to certain insect orders or even to certain species within an insect order. […] Another ex ...

For data set [3], the system named is German cockroaches (Blattella germanica). The note with it: cited from earlier work.
Source text: as §1

Data set [4] concerns fruit flies (Drosophila melanogaster). The data set is described as follows: Insecticidal activity by injection into fruit flies (PD50, LD50). Format: in vivo. The settings on record: D. melanogaster. The method, then:
(§2) Figure 3 Insecticidal effects of Ae1a. (A) rAe1a was injected into blowflies (Lucilia cuprina) and paralytic effects were measured 0.5 and 1 h after injection. (B) rAe1a was injected into fruit flies (Drosophila melanogaster) and paralytic and lethal effects were measured at 3 h and 24 h post injection. (C) rAe1a and Hv1a were injected into the triatomine bug Rhodnius prolixus and lethality was measured 24 h after injection. PD50 and LD50 values were calculated as described previously.
The effect on rAe1a on fruit flies was determined using a previously described method. rAe1a was dissolved in 100 mM ammonium acetate buffer (pH 6.1) and injected into the lateral thoracic region of adult female D. melanogaster using a glass capillary connected with silicone tubing to a 10 ml plastic syringe. The injection volume per fruit fly was calibrated to be 50 nl for each glass capillary. After injection, fruit flies were housed in 68-ml plastic tubes (containing a cotton piece soaked in 0.5% sucrose solution) in groups of 10 (all receiving the same treatment) and monitored for signs of paralysis or lethality at 3 and 24 h post-injection.

The next data set concerns BgNaV1. The data set can be described thus: Two-electrode voltage-clamp of BgNaV1 in Xenopus oocytes. The data set is classed as cell-based, Blattella germanica. As to the method:
(§3) Figure 4 Effect of rAe1a on BgNav1 and hNaV1.5. Left panels: Representative traces showing the effect of rAe1a (200 nM) on sodium currents mediated by (A) BgNaV1, (C) mutant BgNaV1 (H805Y/D812E), and (E) hNaV1.5 heterologously expressed in Xenopus oocytes. Currents were evoked by a depolarization to −15 mV, with black and red traces corresponding to the current before and after toxin application, respectively. Right panels: Effect of 200 nM rAe1a on normalized conductance-voltage (G–V) relationships (G/Gmax) and steady-state inactivation (SSI) relationships (I/Imax) for (B) BgNaV1, (D) mutant BgNaV1, and (F) hNaV1.5. […]
(§4) cRNA encoding BgNaV1 from Blattella germanica[50] and hNaV1.5 (Origene, Rockville, MD, USA) was synthesized using T7 polymerase (mMessage mMachine kit, Life Technologies, USA) after linearizing the fully-sequenced DNA. […] Oocytes were incubated at 17 °C in 96 mM NaCl, 2 mM KCl, 5 mM HEPES, 1 mM MgCl2 and 1.8 mM CaCl2, 50 μg/ml gentamycin, pH 7.6 with NaOH, and currents were measured 1–2 days after cRNA injection using the two-electrode voltage-clamp recording technique (OC-725C, Warner Instruments, Hamden, CT, USA) with a 150-μl recording chamber. […] After addition of rAe1a to the recording chamber, equilibration between toxin and channel was monitored using weak depolarizations elicited at 5-s intervals. […]
(In two-electrode clamp one electrode senses voltage and the other passes current.)

In data set [5] the test system is NaV channel currents in dorsal unpaired median (DUM) neurons (PaNaV1). The data set is described as follows: Whole-cell patch-clamp of NaV channel currents in DUM neurons. The data set is classed as cell-based, Periplaneta americana. The settings on record: P. americana DUM neurons. The method, then: Figure 5 Effect of rAe1a on NaV channel currents in P. americana DUM neurons. (A) Representative traces showing the effect of 1 μM rAe1a on INa mediated by PaNaV1 in P. americana DUM neurons. Currents were evoked by depolarizations to −10 mV, from a holding potential of −90 mV (panel B), with black and red traces corresponding to the current before, and 5 min after, toxin application, respectively. (C) Time course of rAe1a actions on PaNaV1. Peak INa were recorded at a rate of 0.1 Hz before (black circles), and for 5 min during, application of 1 μM rAe1a (red circles) and normalized against maximal peak INa (−1/Imax; n = 3). (D) GNa-V relationships in P. americana DUM neurons. A voltage protocol with depolarisation steps from −90 mV to +40 mV in 10 mV increments (lower panel B) was used to generate families of INa. The normalized conductance-voltage (GNa-V) relationship (G/Gmax) is shown before (black circles) and after (red circles) a 5 min perfusion with 1 μM rAe1a (n = 4). […]
Ionic currents were recorded from DUM neurons in voltage-clamp mode using the whole-cell patch-clamp technique employing version 10.2 of the pCLAMP data acquisition system (Molecular Devices, Sunnyvale, CA, USA). […] Liquid junction potentials were calculated using JPCALC, and all data were compensated for these values. […] Peak current amplitude was analysed offline using AxoGraph X v1.5.3 (Molecular Devices). […]

Data set [6] relates to mutant BgNaV1 (H805Y/D812E). The data set can be described thus: Two-electrode voltage-clamp of mutant BgNaV1 (H805Y/D812E) in Xenopus oocytes. The data set is classed as cell-based, Blattella germanica. The note with it: BgNaV1 H805Y/D812E versus wild-type BgNaV1. As to the method: as §3, §4
Data set [7] has as its system diamondback moth Plutella xylostella. The data set can be described thus: Injection into larvae of the diamondback moth (data not shown). The settings on record: injected into larvae of Plutella xylostella. Format: in vivo.
Data set [8] deals with cotton bollworms (H. armigera larvae). The data set can be described thus: Injection into cotton bollworm larvae. The data set is classed as in vivo, Helicoverpa armigera. As to the method:
We examined the effect of rAe1a on cotton bollworms (i.e., larvae of H. armigera) supplied by AgBiTech (Glenvale, QLD, Australia). […] Larvae were kept on artificial diet (AgBiTech) in standard 6-well plates and their mass was measured 24, 48 and 72 h after the injection.

For data set [9], the system named is triatomine bug Rhodnius prolixus. The data set is described as follows: Toxicity by injection into triatomine bugs. Format: in vivo. The settings on record: for activity against R. prolixus (in words): injection. The method, then: as §2
Toxicity against R. prolixus was measured using the method described by Luna et al.[49] with some modifications. Microinjection needles, made by pulling borosilicate glass capillaries with a needle puller (Narishige, PC-10, Japan), were fitted onto a Nanoject II auto injector (Drummond Scientific, Broomall, PA, USA). Ae1a, Hv1a, or PBS (n = 7–10 per dose, 138 nl volume) were injected into the thorax of second instar R. prolixus nymphs (average mass 1.4 mg) via articulation of prothoracic coxa. Synthetic Hv1a was kindly supplied by Vestaron Corporation (Kalamazoo, MI, USA). Three separate sets of experiments were performed for each compound. After injection, bugs were transferred to plastic cages and stored at 26 °C with 50% relative humidity. All bugs were checked at 24 h post-injection for signs of paralysis or lethality.

The next data set has as its system hNaV1.5. The data set is described as follows: Two-electrode voltage-clamp of hNaV1.5 in Xenopus oocytes. The note with it: hNaV1.5 + human β1 in Xenopus oocytes, 200 nM, n = 3–5. The data set is classed as cell-based. As to the method: as §3, §4
For data set [10], the system named is fruit fly Drosophila melanogaster. The data set is described as follows: Screen of spider venoms / native peptide by injection into fruit flies. The settings on record: injected into D. melanogaster. Format: in vivo. As to the method: We used the fruit fly Drosophila melanogaster to rapidly screen spider venoms for insecticidal activity. […] Microinjection of venoms or toxins into D. melanogaster has the advantage that it requires only small volumes (50 nl per fly), which enables the study of scarce venoms from small venomous animals. Given the worldwide availability of Drosophila and the general sensitivity of flies towards spider toxins, this assay provides a convenient method for determining the insecticidal potency of venom compounds. However, as discussed below, it should not be used in isolation but rather as part of a taxonomically diverse screening protocol that aims to uncover potentially complex phyletic specificities.

Data set [11] relates to sheep blowflies (Lucilia cuprina). The data set is described as follows: Insecticidal activity by injection into sheep blowflies (PD50). The data set is classed as in vivo. As to the method: as §2
rAe1a was dissolved in insect saline[45] and injected into the ventro-lateral thoracic region of adult sheep blowflies (L. cuprina; mass 26.8–29.7 mg) as described previously. A maximum of 2 μl was injected per fly using a 1.0 ml Terumo Insulin syringe with 29-gauge needle fitted to an Arnold hand micro-applicator (Burkard Manufacturing Co. Ltd., Rickmansworth, England). After injection, flies were individually housed in 2-ml tubes and paralytic effects determined after 0.5, 1 and 24 h. A total of three assays were performed, and for each assay nine doses of rAe1a (n = 10 flies per dose) and the appropriate control (insect saline; n = 20 flies each) were used. PD50 values were calculated as described.

The subject of data set [12] is insect voltage-gated calcium channels. The note with it: cited from earlier work.
Data set [13] has as its system wide range of insect pest species. The note with it: cited from earlier work.
Source text: as §1

In the next data set the test system is honeybees. The settings on record: cited from earlier work.
Source text: as §1

Consider μ-DGTX-Dc1a, for which the “selectivity for BgNaV1 over PaNaV1 (in words)” value in data set [1] was “selectivity”. Besides, in [2], the “adverse effects (in words)” value is recorded as “does not induce adverse effects”. Also, in [3], the “lethality (in words)” value is “lethal”.

Take μ-theraphotoxin-Ae1a: the “paralysis / lethality (in words)” value in [4] is on record as “lethal; also recorded: irreversible paralysis leading to death; also recorded: highly sensitive”. In addition, in the data set with BgNaV1, the “inhibition of BgNaV1 currents (in words)” value is “potently inhibits”. For the same substance, the “effect on NaV channel currents in DUM neurons (in words)” value in [5] was “failed to significantly affect sodium currents; also recorded: no significant affect”. Besides, the “sensitivity of mutant channel to toxin (in words)” value in [6] is “much less sensitive”. Besides, in data set [7], the “lethality (in words)” value was “lethal”. In [8], the “adverse effects / resistance (in words)” value is reported as “no adverse effects; also recorded: resistant”. The “activity against R. prolixus (in words)” value in data set [9] was “inactive”. Besides, the “effect on hNaV1.5 currents and gating (in words)” value with hNaV1.5 was “completely inactive”. Also, the “lethality / toxicity (in words)” value in [10] is given as “lethal”. The “paralysis (in words)” value in data set [11] (L. cuprina) is on record as “rapid but reversible paralysis; also recorded: reverses within 24 h”. Moreover, the “PD50 (summary value)” value in data set [11] (sheep blowflies, approximate value in discussion) is ~ 950 pmol/g.

For ω-hexatoxin-Hv1a, the LD50 in data set [9] (R. prolixus second instar nymphs, injection into thorax, 24 h after injection, n = 7–10 per dose, three experiments) is given as 147 ± 37 pmol/g. Further, the “activity against R. prolixus (in words)” value in data set [9] is on record as “highly susceptible”. In addition, in [12], the “calcium channel inhibition (in words)” value is on record as “selective inhibitor”. Moreover, the “lethality (in words)” value in data set [13] is listed as “lethal”. For the same substance, in the data set with honeybees, the “activity against honeybees (in words)” value was “inactive”.
